Results reported in patent publication US9988381B2, “Five-member-heterocycle fused pyridine compounds, method of producing the same, and use thereof” (SHANGHAI INSTITUTE OF MATERIA MEDICA, CHINESE ACADEMY OF …, priority 2013, dated 2018).
Read-outs that look alike come from different tables or passages of the source.

Key:
[1] = biological target: T1, c-Met kinase domain recombinant protein (Homo sapiens, UniProt P08581); test: biochemical; details: read-out: Inhibition rate at 10 μM (%)
T1 construct: 50 μL diluted solution of c-Met kinase domain recombinant protein in reaction buffer was added to initiate the reaction
T1 sequence (P08581 1078-1345 limits assumed): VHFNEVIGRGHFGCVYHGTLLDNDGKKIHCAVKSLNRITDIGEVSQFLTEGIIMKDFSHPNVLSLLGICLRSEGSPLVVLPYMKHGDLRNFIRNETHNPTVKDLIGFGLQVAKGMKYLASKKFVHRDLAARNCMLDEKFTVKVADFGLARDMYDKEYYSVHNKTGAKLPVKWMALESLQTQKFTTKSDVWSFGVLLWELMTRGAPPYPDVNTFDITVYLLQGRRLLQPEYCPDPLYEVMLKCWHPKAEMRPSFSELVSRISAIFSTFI
Summary of the method: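 Recombinant c-Met kinase domain phosphorylated immobilised Poly(Glu,Tyr)4:1 for 1 h at 37 °C in 50 mM HEPES pH 7.4, 50 mM MgCl2, 0.5 mM MnCl2, 0.2 mM Na3VO4, 1 mM DTT with ATP. Product measured by anti-phosphotyrosine PY99 ELISA (HRP, 490 nm), giving percent inhibition; ATP-free wells served as control.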

[2] = biological target: T1, c-Met kinase domain recombinant protein; test: biochemical; details: for inhibition at 0.1 µM: read-out: Average inhibition rate at 0.1 μM (%); for inhibition at 1 µM: read-out: Average inhibition rate at 1 μM (%); for inhibition at 10 µM: read-out: Average inhibition rate at 10 μM (%)
Summary of the method: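 IC50 came from a four-parameter fit of inhibition rates measured by anti-phosphotyrosine (PY99/HRP) ELISA at 490 nm. The reaction ran 1 hour at 37° C with 5 μM ATP, c-Met kinase domain protein and Poly(Glu,Tyr)4:1-coated wells, in HEPES pH 7.4 buffer containing MgCl2, MnCl2, Na3VO4 and DTT.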

BaF3/TPR-Met cell = test: Test III: growth inhibition of engineered BaF3/TPR-Met cells (MTT); format: cell-based; details: Mus musculus; for inhibition at 0.2 µM: read-out: Cell proliferation inhibition rate at 200 nM (%); for inhibition at 1 µM: read-out: Cell proliferation inhibition rate at 1 μM (%)
Experimental: Assays on the growth inhibition of the compounds against engineered BaF3/TPR-Met cell (engineered cell line having TPR-Met fusion protein stably expressed in cytoplasm, persistently activated, Met dependent sensitive cell line; BaF3 cell was purchased from DSMZ, German) were detected using microculture tetrozolium (MTT) staining. A certain amount of BaF3/TPR-Met cells at log phase were inoculated into 96-well culture plate at 90 µL per well, incubated overnight and then 10 μL compound at various concentrations or vehicle control (normal saline) was added, each concentration was tested in triplicate. After incubation with compound for 72 hours, the incubation was terminated, MTT solution (5 mg/mL) was added at 20 μL per well, incubated at 37° C. for 4 hours, then 100 μL triplet solution (10% SDS−5% isobutanol−0.01M HCl) was added, incubated overnight at 37° C., OD value was measured at 570 nm. […] Experiments were conducted in duplicates.

Compound	inhibition at 10 µM [1] [%]	IC50 [2] [nM]	inhibition at 0.1 µM [2] [%]	inhibition at 1 µM [2] [%]	inhibition at 10 µM [2] [%]	inhibition at 0.2 µM (BaF3/TPR-Met cell; BaF3, 72 h) [%]	inhibition at 1 µM (BaF3/TPR-Met cell; BaF3, 72 h) [%]	inhibition at 1 µM (BaF3/TPR-Met cell; BaF3/TPR-Met, 1 μM, 72 hours) [%]	inhibition at 0.2 µM (BaF3/TPR-Met cell; BaF3/TPR-Met, 200 nM, 72 hours) [%]
Cn1cc(-c2cnc3cnn(S(=O)(=O)c4c(Cl)nc5sccn45)c3c2)cn1 [Compound 18]	64	4.2 ± 0.6	52.2	60.5	64	1.8	94.4	–	–
Cn1cc(-c2cnc3cnn(S(=O)(=O)c4cccc5nonc45)c3c2)cn1 [Compound 20, 1-(benzo[1,2,5]oxadiazole-4-sulfonyl)-6-[(1-methyl)-4-pyrazolyl]-1-H-pyrazolo[4,3-b]pyridine]	85.7	316 ± 141	54.9	72.6	85.7	3.2	2.9	–	–
Cn1cc(-c2cnc3cnn(S(=O)(=O)c4cnc5cccnn45)c3c2)cn1 [Example 21, 1-(imidazo[1,2-b]pyridazine-3-sulfonyl)-6-[(1-methyl)-4-pyrazolyl]-1-H-pyrazolo[4,3-b]pyridine]	77.9	–	59	59.7	77.9	–	–	42.7	–
Cn1cc(-c2cnc3cnn(S(=O)(=O)c4cnc5ccc(Cl)cn45)c3c2)cn1 [Example 24, 1-[(6-chloro-imidazo[1,2-a]pyridine)-3-sulfonyl]-6-[(1-methyl)-4-pyrazolyl]-1-H-pyrazolo[4,3-b]pyridine]	70.5	2.5 ± 1.2	62.9	67.8	70.5	65.9	90.9	–	–
Cn1cc(-c2cnc3cnn(S(=O)(=O)c4cnc5ccc(Cl)nn45)c3c2)cn1 [Example 25, 1-[(6-chloro-imidazo[1,2-b]pyridazine)-3-sulfonyl]-6-[(1-methyl)-4-pyrazolyl]-1-H-pyrazolo[4,3-b]pyridine]	86.2	21.3 ± 2.3	71.7	78	86.2	36.3	88.4	–	–
O=S(=O)(c1cnc2ccccn12)n1ncc2ncc(-c3ccccc3)cc21 [Example 28, 1-(imidazo[1,2-a]pyridine-3-sulfonyl)-6-phenyl-1-H-pyrazolo[4,3-b]pyridine]	70.6	6.7 ± 0.5	64.6	70.3	70.6	–	66.1	–	–
O=S(=O)(c1cnc2ccccn12)n1ncc2ncc(-c3ccsc3)cc21 [Example 29, 1-(imidazo[1,2-a]pyridine-3-sulfonyl)-6-(3-thienyl)-1-H-pyrazolo[4,3-b]pyridine]	65.7	4.6 ± 1	55.7	63.8	65.7	–	92.6	–	–
CN1CCN(C(=O)c2ccc(-c3cnc4cnn(S(=O)(=O)c5cnc6ccccn56)c4c3)cc2)CC1 [Example 37, 1-(imidazo[1,2-a]pyridine-3-sulfonyl)-6-[4-(4-methylpiperazine-1-carbonyl)phenyl]-1-H-pyrazolo[4,3-b]pyridine]	73.3	6.4 ± 2.2	60.1	63.8	73.3	59.5	96.2	–	–
O=S(=O)(c1cnc2ccccn12)n1ncc2ncc(-c3ccc(N4CCOCC4)cc3)cc21 [Example 39, 1-(imidazo[1,2-a]pyridine-3-sulfonyl)-6-(4-morpholinylphenyl)-1-H-pyrazolo[4,3-b]pyridine]	68.8	2.6 ± 0.3	58.2	65	68.8	74.4	96.3	–	–
CC(C)(C)OC(=O)N1CCC(n2cc(-c3cnc4cnn(S(=O)(=O)c5cnc6ccccn56)c4c3)cn2)CC1 [Example 44, 1-(imidazo[1,2-a]pyridine-3-sulfonyl)-6-{{1-[(1-t-butoxycarbonyl)-4-piperidinyl]}-4-pyrazolyl}-1-H-pyrazolo[4,3-b]pyridine]	87.5	6.9 ± 1.9	74.6	78.6	87.5	95	95.8	–	–
O=S(=O)(c1cnc2ccccn12)n1ncc2ncc(-c3cnn(C4CCNCC4)c3)cc21 [Example 45, 1-(imidazo[1,2-a]pyridine-3-sulfonyl)-6-{[1-(4-piperidinyl)]-4-pyrazolyl}-1-H-pyrazolo[4,3-b]pyridine]	89.6	2.9 ± 0.6	73.4	76.5	89.6	27.9	95.9	–	–
CC(C)(C)OC(=O)N1CCC(n2cc(-c3cnc4cnn(S(=O)(=O)c5cnn6cccnc56)c4c3)cn2)CC1 [Example 46, 1-(pyrazolo[1,5-a]pyrimidine-3-sulfonyl)-6-{{1-[(1-t-butoxycarbonyl)-4-piperidinyl]}-4-pyrazolyl}-1-H-pyrazolo[4,3-b]pyridine]	81.3	–	55.9	65	81.3	–	–	68	33.7
CC(C)(C)OC(=O)N1CCC(n2cc(-c3cnc4cnn(S(=O)(=O)c5cnc6cccnn56)c4c3)cn2)CC1 [Example 49, 1-(imidazo[1,2-b]pyridazine-3-sulfonyl)-6-{{1-[(1-t-butoxycarbonyl)-4-piperidinyl]}-4-pyrazolyl}-1-H-pyrazolo[4,3-b]pyridine]	76.7	–	71	74.5	76.7	–	–	90.5	28.4
O=S(=O)(c1cnc2cccnn12)n1ncc2ncc(-c3cnn(C4CCNCC4)c3)cc21 [Example 51]	72.3	–	64.6	66.7	72.3	–	–	7.7	15.3
CCN1CCC(n2cc(-c3cnc4cnn(S(=O)(=O)c5cnc6ccccn56)c4c3)cn2)CC1 [Example 53, 1-(imidazo[1,2-a]pyridine-3-sulfonyl)-6-{{1-[(1-ethyl)-4-piperidinyl]}-4-pyrazolyl}-1-H-pyrazolo[4,3-b]pyridine]	65.7	–	67.5	68.4	74.1	–	–	90.9	–
CC(=O)N1CCC(n2cc(-c3cnc4cnn(S(=O)(=O)c5cnc6ccccn56)c4c3)cn2)CC1 [Example 54, 1-(imidazo[1,2-a]pyridine-3-sulfonyl)-6-{{1-[(1-acetyl)-4-piperidinyl]}-4-pyrazolyl}-1-H-pyrazolo[4,3-b]pyridine]	70.7	–	55.9	57.9	62.1	–	–	89.6	88.3
O=C(C1CC1)N1CCC(n2cc(-c3cnc4cnn(S(=O)(=O)c5cnc6ccccn56)c4c3)cn2)CC1 [Example 55, 1-(imidazo[1,2-a]pyridine-3-sulfonyl)-6-{{1-[(1-cyclopropylcarbonyl)-4-piperidinyl]}-4-pyrazolyl}-1-H-pyrazolo[4,3-b]pyridine]	74.1	1.3 ± 0.1	58.8	58.3	60.8	89.3	89.8	–	–
O=C(C1CCCC1)N1CCC(n2cc(-c3cnc4cnn(S(=O)(=O)c5cnc6ccccn56)c4c3)cn2)CC1 [Example 56, 1-(imidazo[1,2-a]pyridine-3-sulfonyl)-6-{{1-[(1-cyclopentylcarbonyl)-4-piperidinyl]}-4-pyrazolyl}-1-H-pyrazolo[4,3-b]pyridine]	62.1	–	53.3	56.3	58.9	–	–	90.6	79.1
